Molecules are shown by their SMILES.

The target in assay [1] is RAF proto-oncogene serine/threonine-protein kinase (Homo sapiens) (UniProt P04049). Put plainly: Inhibition of human recombinant RAF1 at 15 nM related to control ULK1.
The target of assay [2] is Tyrosine-protein kinase Fgr (Homo sapiens) (UniProt P09769). Description: Inhibition of human recombinant FGR at 15 nM in presence of ATP by radiometric assay relative to control.
Assay [3] concerns the target Myosin light chain kinase 2, skeletal/cardiac muscle (Homo sapiens) (UniProt Q9H1R3). Put plainly: Inhibition of human recombinant skMLCK at 15 nM in presence of ATP by radiometric assay relative to control.
For assay [4], the target named is Glycogen synthase kinase-3 alpha (Homo sapiens) (UniProt P49840). Put plainly: Inhibition of human recombinant GSK3A at 40 nM related to control ULK1.
Chain of Glycogen synthase kinase-3 alpha (Homo sapiens) (P49840 2-483 limits assumed): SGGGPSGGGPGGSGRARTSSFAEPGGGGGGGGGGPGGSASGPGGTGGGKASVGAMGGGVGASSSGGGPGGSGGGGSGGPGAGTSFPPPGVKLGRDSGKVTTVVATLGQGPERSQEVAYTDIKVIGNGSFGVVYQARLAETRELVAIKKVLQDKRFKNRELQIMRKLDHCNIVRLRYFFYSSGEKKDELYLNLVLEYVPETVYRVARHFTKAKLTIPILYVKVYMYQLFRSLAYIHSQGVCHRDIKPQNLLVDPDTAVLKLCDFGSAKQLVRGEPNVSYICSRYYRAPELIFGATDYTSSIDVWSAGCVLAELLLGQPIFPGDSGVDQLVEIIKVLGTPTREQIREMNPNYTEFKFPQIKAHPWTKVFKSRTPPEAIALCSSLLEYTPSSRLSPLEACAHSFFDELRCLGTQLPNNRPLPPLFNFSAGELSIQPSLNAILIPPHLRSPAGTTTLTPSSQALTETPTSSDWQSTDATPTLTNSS
The target of assay [5] is T1, NUAK family SNF1-like kinase 1 (Homo sapiens) (UniProt O60285).
T1 sequence (whole entry): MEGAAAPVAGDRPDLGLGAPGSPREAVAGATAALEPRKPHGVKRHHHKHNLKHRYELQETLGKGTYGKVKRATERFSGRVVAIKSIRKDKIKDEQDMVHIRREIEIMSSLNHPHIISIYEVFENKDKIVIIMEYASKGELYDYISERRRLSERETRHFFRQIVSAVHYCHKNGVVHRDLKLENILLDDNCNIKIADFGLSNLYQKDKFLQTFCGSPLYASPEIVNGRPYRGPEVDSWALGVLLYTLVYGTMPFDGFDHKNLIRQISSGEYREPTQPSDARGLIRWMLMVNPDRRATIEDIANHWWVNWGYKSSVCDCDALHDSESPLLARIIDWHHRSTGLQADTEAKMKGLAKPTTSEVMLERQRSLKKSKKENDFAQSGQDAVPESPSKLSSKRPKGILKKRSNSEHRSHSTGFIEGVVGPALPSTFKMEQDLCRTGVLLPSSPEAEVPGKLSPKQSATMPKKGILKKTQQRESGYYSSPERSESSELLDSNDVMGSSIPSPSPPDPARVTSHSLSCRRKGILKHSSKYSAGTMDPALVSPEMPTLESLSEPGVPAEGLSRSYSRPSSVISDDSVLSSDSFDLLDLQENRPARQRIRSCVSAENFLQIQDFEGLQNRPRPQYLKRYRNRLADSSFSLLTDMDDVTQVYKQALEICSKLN
Description: Inhibition of human recombinant NuaK1 at 40 nM related to control ULK1.

Assay [6] addresses Rho-associated protein kinase 1 (Homo sapiens) (UniProt Q13464). Put plainly: Inhibition of human recombinant ROCK1 at 40 nM related to control ULK1.
Assay [7] addresses Ribosomal protein S6 kinase alpha-2 (Homo sapiens) (UniProt Q15349). Description: Inhibition of human recombinant RSK3 at 500 nM related to control ULK1.
Assay [8] concerns the target Serine/threonine-protein kinase PRP4 homolog (Homo sapiens) (UniProt Q13523). Put plainly: Inhibition of human recombinant PRP4 at 500 nM related to control ULK1.
Assay [9] deals with TRAF2 and NCK-interacting protein kinase (Homo sapiens) (UniProt Q9UKE5). Description: Inhibition of human recombinant TNIK at 500 nM related to control ULK1.
The target in assay [10] is Serine/threonine-protein kinase Nek4 (Homo sapiens) (UniProt P51957). Put plainly: Inhibition of human recombinant NEK4 at 500 nM in presence of ATP by radiometric assay relative to control.
Chain of Serine/threonine-protein kinase Nek4 (Homo sapiens) (P51957 whole entry, looked up): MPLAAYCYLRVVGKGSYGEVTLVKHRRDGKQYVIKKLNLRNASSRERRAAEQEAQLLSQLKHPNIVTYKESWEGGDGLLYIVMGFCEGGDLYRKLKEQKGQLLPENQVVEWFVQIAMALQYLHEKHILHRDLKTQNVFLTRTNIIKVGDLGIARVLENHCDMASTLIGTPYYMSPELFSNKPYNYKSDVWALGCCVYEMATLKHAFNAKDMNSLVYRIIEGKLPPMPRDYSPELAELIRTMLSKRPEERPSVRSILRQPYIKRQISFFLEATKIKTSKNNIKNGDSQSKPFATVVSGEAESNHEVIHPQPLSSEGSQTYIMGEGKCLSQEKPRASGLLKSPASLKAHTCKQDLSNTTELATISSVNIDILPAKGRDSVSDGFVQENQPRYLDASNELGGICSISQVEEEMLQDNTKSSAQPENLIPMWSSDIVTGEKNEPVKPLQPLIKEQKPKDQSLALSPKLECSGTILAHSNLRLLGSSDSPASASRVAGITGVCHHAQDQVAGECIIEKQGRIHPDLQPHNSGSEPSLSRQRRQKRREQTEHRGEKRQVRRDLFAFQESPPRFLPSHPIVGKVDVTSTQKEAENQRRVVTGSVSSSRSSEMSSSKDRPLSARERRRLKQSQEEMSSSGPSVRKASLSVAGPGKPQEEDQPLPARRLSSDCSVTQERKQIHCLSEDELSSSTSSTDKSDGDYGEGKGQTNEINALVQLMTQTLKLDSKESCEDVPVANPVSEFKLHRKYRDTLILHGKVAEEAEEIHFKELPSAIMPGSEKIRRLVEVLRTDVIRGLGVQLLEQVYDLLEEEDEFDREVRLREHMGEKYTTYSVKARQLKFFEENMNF
The target of assay [11] is T2, Aurora kinase C (Homo sapiens) (UniProt Q9UQB9).
T2 sequence (whole entry): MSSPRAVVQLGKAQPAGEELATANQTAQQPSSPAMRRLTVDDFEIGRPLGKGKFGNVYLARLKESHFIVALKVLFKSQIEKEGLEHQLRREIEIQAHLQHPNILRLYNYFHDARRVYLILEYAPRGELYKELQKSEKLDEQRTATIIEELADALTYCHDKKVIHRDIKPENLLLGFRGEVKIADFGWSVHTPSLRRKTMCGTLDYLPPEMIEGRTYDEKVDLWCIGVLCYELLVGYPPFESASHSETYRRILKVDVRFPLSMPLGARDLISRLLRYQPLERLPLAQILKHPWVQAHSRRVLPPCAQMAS
Put plainly: Inhibition of human recombinant AurC at 500 nM related to control ULK1.

Assay [12] has as its target Dual specificity protein kinase CLK2 (Homo sapiens) (UniProt P49760). Description: Inhibition of human recombinant CLK2 at 500 nM related to control ULK1.
Assay [13] has as its target Eukaryotic translation initiation factor 2-alpha kinase 1 (Homo sapiens) (UniProt Q9BQI3). Description: Inhibition of human recombinant HRI at 500 nM in presence of ATP by radiometric assay relative to control.
Assay [14] has as its target T3, Dual specificity tyrosine-phosphorylation-regulated kinase 3 (Homo sapiens) (UniProt O43781).
T3 sequence (whole entry): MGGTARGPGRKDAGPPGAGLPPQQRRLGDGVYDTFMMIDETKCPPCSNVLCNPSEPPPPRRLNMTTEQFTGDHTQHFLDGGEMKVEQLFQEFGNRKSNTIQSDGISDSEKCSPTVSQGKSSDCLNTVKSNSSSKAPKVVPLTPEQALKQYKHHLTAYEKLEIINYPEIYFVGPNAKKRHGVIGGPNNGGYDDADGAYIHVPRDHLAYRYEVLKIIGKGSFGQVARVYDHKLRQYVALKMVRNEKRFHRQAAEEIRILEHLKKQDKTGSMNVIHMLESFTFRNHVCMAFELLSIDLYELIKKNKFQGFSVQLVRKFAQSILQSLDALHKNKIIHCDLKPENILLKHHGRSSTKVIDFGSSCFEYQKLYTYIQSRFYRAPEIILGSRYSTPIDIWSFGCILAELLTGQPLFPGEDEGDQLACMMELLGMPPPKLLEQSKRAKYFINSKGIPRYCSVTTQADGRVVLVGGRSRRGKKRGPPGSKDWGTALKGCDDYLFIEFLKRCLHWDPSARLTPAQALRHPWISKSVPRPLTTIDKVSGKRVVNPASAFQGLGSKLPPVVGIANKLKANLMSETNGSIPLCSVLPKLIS
Description: Inhibition of human recombinant DYRK3 at 500 nM related to control ULK1.

Chain of Serine/threonine-protein kinase PRP4 homolog (Homo sapiens) (Q13523 whole entry): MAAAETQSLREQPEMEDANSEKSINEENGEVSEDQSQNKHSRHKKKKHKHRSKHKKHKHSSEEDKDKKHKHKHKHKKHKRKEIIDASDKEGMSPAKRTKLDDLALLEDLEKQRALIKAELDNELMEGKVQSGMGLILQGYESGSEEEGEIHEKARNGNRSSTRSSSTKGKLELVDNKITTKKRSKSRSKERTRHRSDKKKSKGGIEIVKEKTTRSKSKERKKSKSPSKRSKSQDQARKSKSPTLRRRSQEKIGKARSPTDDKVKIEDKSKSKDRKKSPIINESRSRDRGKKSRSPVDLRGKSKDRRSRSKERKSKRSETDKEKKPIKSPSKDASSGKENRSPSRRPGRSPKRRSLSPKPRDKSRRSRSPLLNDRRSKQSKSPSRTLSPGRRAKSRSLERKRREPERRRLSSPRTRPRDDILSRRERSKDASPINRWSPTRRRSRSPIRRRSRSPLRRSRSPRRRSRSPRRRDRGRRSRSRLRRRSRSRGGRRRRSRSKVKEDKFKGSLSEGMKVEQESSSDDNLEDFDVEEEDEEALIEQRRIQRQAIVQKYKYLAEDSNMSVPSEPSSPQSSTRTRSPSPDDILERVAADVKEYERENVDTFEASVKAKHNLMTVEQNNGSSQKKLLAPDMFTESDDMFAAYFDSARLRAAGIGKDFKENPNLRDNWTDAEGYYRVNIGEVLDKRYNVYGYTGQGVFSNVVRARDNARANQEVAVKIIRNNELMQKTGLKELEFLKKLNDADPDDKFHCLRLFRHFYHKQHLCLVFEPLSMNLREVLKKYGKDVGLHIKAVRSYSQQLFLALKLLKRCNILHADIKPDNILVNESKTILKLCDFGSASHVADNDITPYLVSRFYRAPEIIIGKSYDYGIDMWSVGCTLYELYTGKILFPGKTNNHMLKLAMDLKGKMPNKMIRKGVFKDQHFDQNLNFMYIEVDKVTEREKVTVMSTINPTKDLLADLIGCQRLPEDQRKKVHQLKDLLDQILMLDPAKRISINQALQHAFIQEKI
Chain of Dual specificity protein kinase CLK2 (Homo sapiens) (P49760 whole entry, looked up): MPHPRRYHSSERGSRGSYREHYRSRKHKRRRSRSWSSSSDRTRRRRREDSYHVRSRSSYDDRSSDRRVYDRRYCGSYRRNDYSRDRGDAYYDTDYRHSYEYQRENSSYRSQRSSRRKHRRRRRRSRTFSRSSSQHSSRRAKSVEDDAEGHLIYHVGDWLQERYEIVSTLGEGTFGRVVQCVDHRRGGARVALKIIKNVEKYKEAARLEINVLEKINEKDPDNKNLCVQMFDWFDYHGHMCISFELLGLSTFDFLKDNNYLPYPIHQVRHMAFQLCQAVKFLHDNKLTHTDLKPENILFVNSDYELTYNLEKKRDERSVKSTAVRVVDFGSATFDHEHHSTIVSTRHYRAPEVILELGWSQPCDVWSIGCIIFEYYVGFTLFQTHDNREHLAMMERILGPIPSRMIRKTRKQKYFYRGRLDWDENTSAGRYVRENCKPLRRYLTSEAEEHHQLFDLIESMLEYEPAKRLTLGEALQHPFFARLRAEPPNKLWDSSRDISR
Chain of RAF proto-oncogene serine/threonine-protein kinase (Homo sapiens) (P04049 whole entry): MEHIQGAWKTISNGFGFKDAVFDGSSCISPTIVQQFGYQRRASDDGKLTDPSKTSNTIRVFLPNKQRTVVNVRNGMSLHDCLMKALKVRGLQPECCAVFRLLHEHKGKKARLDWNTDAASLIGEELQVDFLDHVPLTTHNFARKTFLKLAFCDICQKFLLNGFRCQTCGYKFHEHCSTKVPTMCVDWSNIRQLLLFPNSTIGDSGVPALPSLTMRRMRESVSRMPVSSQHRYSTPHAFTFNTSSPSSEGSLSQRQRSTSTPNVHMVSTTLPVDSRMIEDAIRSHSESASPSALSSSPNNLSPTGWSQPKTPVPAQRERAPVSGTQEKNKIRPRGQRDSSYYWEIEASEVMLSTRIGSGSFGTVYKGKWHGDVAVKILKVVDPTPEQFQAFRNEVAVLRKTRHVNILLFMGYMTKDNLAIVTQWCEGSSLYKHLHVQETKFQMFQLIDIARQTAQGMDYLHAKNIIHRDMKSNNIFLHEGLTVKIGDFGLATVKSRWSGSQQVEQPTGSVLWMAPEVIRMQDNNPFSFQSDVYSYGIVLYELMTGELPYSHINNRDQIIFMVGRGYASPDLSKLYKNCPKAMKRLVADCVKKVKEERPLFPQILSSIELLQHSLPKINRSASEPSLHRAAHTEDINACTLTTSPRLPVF
Chain of Myosin light chain kinase 2, skeletal/cardiac muscle (Homo sapiens) (Q9H1R3 whole entry): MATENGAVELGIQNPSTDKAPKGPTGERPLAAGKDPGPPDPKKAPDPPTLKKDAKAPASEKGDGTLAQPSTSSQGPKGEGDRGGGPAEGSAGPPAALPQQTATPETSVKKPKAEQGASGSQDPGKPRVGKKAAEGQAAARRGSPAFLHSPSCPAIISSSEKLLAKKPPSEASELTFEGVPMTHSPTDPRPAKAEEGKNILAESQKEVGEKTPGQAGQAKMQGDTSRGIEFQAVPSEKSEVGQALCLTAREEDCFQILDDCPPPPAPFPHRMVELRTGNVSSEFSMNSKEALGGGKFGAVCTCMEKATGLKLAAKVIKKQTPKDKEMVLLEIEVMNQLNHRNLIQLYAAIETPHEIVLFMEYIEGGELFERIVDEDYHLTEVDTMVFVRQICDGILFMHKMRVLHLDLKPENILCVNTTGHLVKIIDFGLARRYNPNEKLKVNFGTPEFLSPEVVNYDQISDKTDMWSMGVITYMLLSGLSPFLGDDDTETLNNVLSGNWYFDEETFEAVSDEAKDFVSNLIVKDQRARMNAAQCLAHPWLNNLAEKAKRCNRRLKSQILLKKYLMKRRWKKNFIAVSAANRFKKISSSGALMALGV
Chain of Ribosomal protein S6 kinase alpha-2 (Homo sapiens) (Q15349 whole entry): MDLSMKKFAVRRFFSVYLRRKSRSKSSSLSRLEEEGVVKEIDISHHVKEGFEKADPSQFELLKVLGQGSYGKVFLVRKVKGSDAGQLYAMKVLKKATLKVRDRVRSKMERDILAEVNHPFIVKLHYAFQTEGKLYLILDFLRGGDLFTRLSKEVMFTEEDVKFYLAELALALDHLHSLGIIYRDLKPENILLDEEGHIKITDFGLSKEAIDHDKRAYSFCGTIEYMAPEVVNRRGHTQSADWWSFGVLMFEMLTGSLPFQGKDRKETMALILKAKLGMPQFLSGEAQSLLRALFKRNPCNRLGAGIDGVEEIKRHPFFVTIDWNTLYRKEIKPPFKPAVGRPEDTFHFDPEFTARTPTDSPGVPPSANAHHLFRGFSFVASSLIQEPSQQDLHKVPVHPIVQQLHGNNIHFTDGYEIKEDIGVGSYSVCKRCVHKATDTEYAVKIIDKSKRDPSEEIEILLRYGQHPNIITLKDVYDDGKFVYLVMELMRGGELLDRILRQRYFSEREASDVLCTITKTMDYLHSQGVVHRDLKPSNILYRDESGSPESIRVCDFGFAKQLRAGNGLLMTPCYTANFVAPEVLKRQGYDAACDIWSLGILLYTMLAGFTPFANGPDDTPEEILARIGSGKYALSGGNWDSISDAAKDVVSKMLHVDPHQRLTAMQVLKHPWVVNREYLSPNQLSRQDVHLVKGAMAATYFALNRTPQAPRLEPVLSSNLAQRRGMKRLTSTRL

For orientation: inhibition means the share of the control response that was lost under treatment. With `CC(C)[C@H](NC(=O)c1cc(-c2cnn3cc(-c4ccc(OCCN5CCCCC5)cc4)cnc23)cs1)C(F)(F)F`, in assay [1], the fold change (FC) was 0.09. For the same compound, the inhibition was determined as 43% in [2] and 11% in assay [3].

`O=C(N[C@@H](C1CC1)C(F)(F)F)c1cc(-c2cnn3cc(-c4ccc(F)cc4)cnc23)cs1`: the fold change (FC) in [4] came to 0; in assay [5], 0.07; in [6], 0.

With `CNC(=O)c1ccccc1Oc1nc(Nc2cc(OC)c(OC)c(OC)c2)ncc1Br`, the fold change (FC) in [7] amounted to 0.66; in assay [8] it was 0.03; in assay [9] it was 0.05; in assay [11], 0.99; in [12], 0.09; in assay [14], 0. Further, the inhibition in assay [10] stood at 23%; in assay [13], 0%.

(Values after ChEMBL document CHEMBL5653631, “A Potent and Selective ULK1 Inhibitor Suppresses Autophagy and Sensitizes Cancer Cells to Nutrient Stress” (iScience, 2018).)
